Laboratory results taken from patent US10654834B2 (Venenum Biodesign, LLC, priority 2016, dated 2020).

Tests used:
[1] = target: T1, human TGR5 receptor (Homo sapiens, UniProt Q8TDU6); assay: Human TGR5 cAMP production assay (hTGR5-CHO cells, DiscoveRx cAMP XS+ kit); format: cell-based; conditions: luminescent cAMP assay, read-out: Human TGR5 Lum. cAMP Activity (EC50)
T1 construct: host or cells: CHO-K1 (hTGR5-CHO)
T1 sequence (Q8TDU6 1-330): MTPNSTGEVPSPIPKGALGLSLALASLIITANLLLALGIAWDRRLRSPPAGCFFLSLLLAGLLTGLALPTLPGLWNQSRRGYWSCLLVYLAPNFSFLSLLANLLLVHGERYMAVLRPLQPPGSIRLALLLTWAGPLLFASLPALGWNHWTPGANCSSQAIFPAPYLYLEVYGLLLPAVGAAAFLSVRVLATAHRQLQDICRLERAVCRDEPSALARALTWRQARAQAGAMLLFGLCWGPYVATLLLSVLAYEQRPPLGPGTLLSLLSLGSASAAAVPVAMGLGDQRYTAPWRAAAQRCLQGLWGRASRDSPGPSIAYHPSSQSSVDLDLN
In short: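 EC50 values come from luminescent enzyme-complementation cAMP detection, read after overnight incubation. Beforehand, hTGR5-expressing CHO-K1 cells with IBMX and anti-cAMP antibody were exposed 1 h at room temperature to serially diluted (half-log) compounds.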

[2] = target: T2, mouse TGR5 receptor (Mus musculus, UniProt Q80SS6); assay: Mouse TGR5 HTRF cAMP production assay (HEK293-EBNA cells, Cisbio cAMP HiRange kit); format: cell-based; conditions: HEK293-EBNA cells overexpressing mouse TGR5, HTRF cAMP assay
T2 construct: host or cells: HEK293-EBNA (293 c18, ATCC CRL10852)
T2 sequence (Q80SS6 1-329): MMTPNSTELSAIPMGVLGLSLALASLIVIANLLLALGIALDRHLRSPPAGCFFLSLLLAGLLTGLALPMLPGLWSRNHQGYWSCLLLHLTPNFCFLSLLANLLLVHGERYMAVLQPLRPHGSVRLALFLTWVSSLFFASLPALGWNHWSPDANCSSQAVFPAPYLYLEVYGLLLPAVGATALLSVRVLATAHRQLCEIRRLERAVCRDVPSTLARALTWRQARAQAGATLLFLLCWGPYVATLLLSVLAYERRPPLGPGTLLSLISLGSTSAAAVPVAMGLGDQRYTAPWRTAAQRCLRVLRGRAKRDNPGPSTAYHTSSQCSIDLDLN
In short: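 cAMP accumulation was read by competitive HTRF after 1 h room-temperature compound treatment, with a further 1 h conjugate incubation. Cells were mouse TGR5-overexpressing HEK293-EBNA in serum-free DMEM plus 500 μM IBMX. Compounds ran as 12-point half-log series in duplicate, and EC50 values were reported.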

Row | Compound | EC50 [1] [µM] | EC50 [2] [µM]
1 | N#Cc1ccc(CCNC(=O)[C@@H]2CCCN2c2cc(N3CCC(CC(=O)O)CC3)nc(C(F)(F)F)n2)cc1 [Compound 27] | 0.1 to 0.999 | < 0.1
2 | O=C(O)CCNC(=O)N1CCN(c2cc(N3CCC[C@@H](C(=O)NCCc4ccc(C(F)(F)F)cc4)C3)nc(C(F)(F)F)n2)CC1 [Compound 344, (R)-3-(4-(2-(trifluoromethyl)-6-(3-((4-(trifluoromethyl)phenethyl)carbamoyl)-piperidin-1-yl)pyrimidin-4-yl)piperazine-1-carboxamido)propanoic acid] | 0.1 to 0.999 | < 0.1
3 | O=C(O)CCCC1CCN(c2cc(N3C[C@H](O)C[C@H]3C(=O)NCCc3ccc(C(F)(F)F)cc3)nc(C(F)(F)F)n2)CC1 [Compound 212, 4-(1-(6-((2S,4R)-4-hydroxy-2-((4-(trifluoromethyl)phenethyl)carbamoyl)pyrrolidin-1-yl)-2-(trifluoromethyl)pyrimidin-4-yl)piperidin-4-yl)butanoic acid] | 0.1 to 0.999 | < 0.1
4 | N=C(N)N1CCC(CCCC2CCN(c3cc(N4CC[C@H]4C(=O)NCCc4ccc(C(F)(F)F)cc4)nc(C(F)(F)F)n3)CC2)CC1 [Compound 288, (S)-1-(6-(4-(3-(1-carbamimidoylpiperidin-4-yl)propyl)piperidin-1-yl)-2-(trifluoromethyl)pyrimidin-4-yl)-N-(4-(trifluoromethyl)phenethyl)-azetidine-2-carboxamide] | 0.1 to 0.999 | < 0.1
5 | N#Cc1ccc(CCNC(=O)[C@@H]2CCCN2c2cc(-c3ccc(COCC(=O)O)cc3)cc(C(F)(F)F)n2)cc1 [Compound 208, (S)-2-((4-(2-(2-((4-cyanophenethyl)carbamoyl)pyrrolidin-1-yl)-6-(trifluoromethyl)pyridin-4-yl)benzyl)oxy)acetic acid] | 0.1 to 0.999 | < 0.1
6 | O=C(CCCC1CCN(c2cc(N3CCC[C@H]3C(=O)NCCc3ccc(-c4ccncc4)cc3)nc(C(F)(F)F)n2)CC1)NCS(=O)(=O)O [Compound 353, (S)-(4-(1-(6-(2-((4-(pyridin-4-yl)phenethyl)carbamoyl)pyrrolidin-1-yl)-2-(trifluoromethyl)pyrimidin-4-yl)piperidin-4-yl)butanamido)methanesulfonic acid] | < 0.1 | < 0.1
7 | N#Cc1ccc(CCNC(=O)[C@@H]2CCCN2c2cc(N3CCC(CCNc4c(NCCS(=O)(=O)NCC(=O)O)c(=O)c4=O)CC3)nc(C(F)(F)F)n2)cc1 [Compound 370, (S)-2-(2-((2-((2-(1-(6-(2-((4-cyanophenethyl)carbamoyl)pyrrolidin-1-yl)-2-(trifluoromethyl)pyrimidin-4-yl)piperidin-4-yl)ethyl)amino)-3,4-dioxocyclobut-1-en-1-yl)amino)ethylsulfonamido)acetic acid] | < 0.1 | < 0.1
8 | O=C(O)C(=O)N1CCN(c2cc(N3CCC[C@@H](C(=O)NCCc4ccc(C(F)(F)F)cc4)C3)nc(C(F)(F)F)n2)CC1 [Compound 340, (R)-2-oxo-2-(4-(2-(trifluoromethyl)-6-(3-((4-(trifluoromethyl)phenethyl)-carbamoyl)piperidin-1-yl)pyrimidin-4-yl)piperazin-1-yl)acetic acid] | 0.1 to 0.999 | < 0.1
9 | N#Cc1ccc(CCNC(=O)[C@@H]2CCCN2c2cc(-c3ccc(CCC(=O)O)cc3)nc(C(F)(F)F)n2)cc1 [Compound 188, (S)-3-(4-(6-(2-((4-cyanophenethyl)carbamoyl)pyrrolidin-1-yl)-2-(trifluoromethyl)pyrimidin-4-yl)phenyl)propanoic acid] | 0.1 to 0.999 | < 0.1
10 | CCOC(=O)CCNC(=O)NCCC1CCN(c2cc(N3CCC[C@H]3C(=O)NCCc3ccc(C#N)cc3)nc(C(F)(F)F)n2)CC1 [Compound 55, (S)-ethyl 3-(3-(2-(1-(6-(2-((4-cyanophenethyl)carbamoyl)pyrrolidin-1-yl)-2-(trifluoromethyl)pyrimidin-4-yl)piperidin-4-yl)ethyl)ureido)propanoate] | < 0.1 | < 0.1
11 | O=C(O)CCNC(=O)NCCC1CCN(c2cc(N3CCC[C@H]3C(=O)NCCc3ccc(-c4ccncc4)cc3)nc(C(F)(F)F)n2)CC1 [Compound 376, (S)-3-(3-(2-(1-(6-(2-((4-(pyridin-4-yl)phenethyl)carbamoyl)pyrrolidin-1-yl)-2-(trifluoromethyl)pyrimidin-4-yl)piperidin-4-yl)ethyl)ureido)propanoic acid] | 0.1 to 0.999 | < 0.1
12 | N#Cc1ccc(CCNC(=O)[C@@H]2CCCN2c2cc(-c3ccc(CNC(=O)NCCS(=O)(=O)O)cc3)nc(C(F)(F)F)n2)cc1 [Compound 191, (S)-2-(3-(4-(6-(2-((4-cyanophenethyl)carbamoyl)pyrrolidin-1-yl)-2-(trifluoromethyl)pyrimidin-4-yl)benzyl)ureido)ethanesulfonic acid] | 0.1 to 0.999 | < 0.1
13 | N#Cc1ccc(CCNC(=O)[C@@H]2CCN2c2cc(N3CCC(CCCC(=O)NCCOCCNS(=O)(=O)c4ccc(C(=O)O)cc4)CC3)nc(C(F)(F)F)n2)cc1 [Compound 291, (S)-4-(N-(2-(2-(4-(1-(6-(2-((4-cyanophenethyl)carbamoyl)azetidin-1-yl)-2-(trifluoromethyl)pyrimidin-4-yl)piperidin-4-yl)butanamido)ethoxy)ethyl)sulfamoyl)-benzoic acid] | 0.1 to 0.999 | < 0.1
14 | CN(C)CCN1CCN(c2cc(N3CC[C@H]3C(=O)NCCc3ccc(C#N)cc3)nc(C(F)(F)F)n2)CC1 [Compound 226, (S)-N-(4-cyanophenethyl)-1-(6-(4-(2-(dimethylamino)ethyl)piperazin-1-yl)-2-(trifluoromethyl)pyrimidin-4-yl)azetidine-2-carboxamide] | 0.1 to 0.999 | 0.1 to 0.999
15 | N#Cc1ccc(CCNC(=O)[C@@H]2CCCN2c2cc(N3CCC(CCCC(=O)N[C@H](CCCNC(=N)N)C(=O)N[C@H](CCC(=O)O)C(=O)O)CC3)nc(C(F)(F)F)n2)cc1 [Compound 203, (R)-2-((R)-2-(4-(1-(6-((S)-2-((4-cyanophenethyl)carbamoyl)pyrrolidin-1-yl)-2-(trifluoromethyl)pyrimidin-4-yl)piperidin-4-yl)butanamido)-5-guanidino-pentanamido)pentanedioic acid] | < 0.1 | < 0.1

The next lines start with the values.

Row | EC50 [1] [µM] | EC50 [2] [µM] | Compound
16 | < 0.1 | 0.1 to 0.999 | COc1cc(C(F)(F)F)ccc1CCNC(=O)[C@@H]1CCCN(c2cc(N3CCC(CO)CC3)nc(C(F)(F)F)n2)C1 [Compound 331]
17 | < 0.1 | < 0.1 | N#CCCC1CCN(c2cc(N3CCC[C@H]3C(=O)NCCc3ccc(C(F)(F)F)cc3)nc(C(F)(F)F)n2)CC1 [Compound 11]
18 | < 0.1 | < 0.1 | N#CCCN1CCN(c2cc(N3CCC[C@@H](C(=O)NCCc4ccc(C#N)cc4)C3)nc(C(F)(F)F)n2)CC1 [Compound 316, (R)-1-(6-(4-(2-cyanoethyl)piperazin-1-yl)-2-(trifluoromethyl)pyrimidin-4-yl)-N-(4-cyanophenethyl)piperidine-3-carboxamide]
19 | < 0.1 | < 0.1 | N#Cc1ccc(CCNC(=O)[C@@H]2CCCN2c2cc(-c3ccc(CCC(=O)NCCS(=O)(=O)O)cc3)nc(C(F)(F)F)n2)cc1 [Compound 189, (S)-2-(3-(4-(6-(2-((4-cyanophenethyl)carbamoyl)pyrrolidin-1-yl)-2-(trifluoromethyl)pyrimidin-4-yl)phenyl)propanamido)ethanesulfonic acid]
20 | < 0.1 | < 0.1 | CC(=O)NCCOCCNC(=O)NCCC1CCN(c2cc(N3CC[C@H]3C(=O)NCCc3ccc(C#N)cc3)nc(C(F)(F)F)n2)CC1 [Compound 359, (S)-N-(4-cyanophenethyl)-1-(6-(4-(4,12-dioxo-8-oxa-3,5,11-triazatridecyl)piperidin-1-yl)-2-(trifluoromethyl)pyrimidin-4-yl)azetidine-2-carboxamide]
21 | < 0.1 | < 0.1 | N#Cc1ccc(CCNC(=O)[C@@H]2CCCN2c2cc(N3CCC(CCCC(=O)N[C@@H](CCCNC(=N)N)C(=O)O)CC3)cc(C(F)(F)F)n2)cc1 [Compound 200, (S)-2-(4-(1-(2-((S)-2-((4-cyanophenethyl)carbamoyl)pyrrolidin-1-yl)-6-(trifluoromethyl)pyridin-4-yl)piperidin-4-yl)butanamido)-5-guanidinopentanoic acid]
22 | < 0.1 | < 0.1 | CCOC(=O)CCN/C(=N\C#N)NCCC1CCN(c2cc(N3CC[C@H]3C(=O)NCCc3ccc(C#N)cc3)nc(C(F)(F)F)n2)CC1 [Compound 350, (S,Z)-ethyl 3-(2-cyano-3-(2-(1-(6-(2-((4-cyanophenethyl)carbamoyl)azetidin-1-yl)-2-(trifluoromethyl)pyrimidin-4-yl)piperidin-4-yl)ethyl)guanidino)propanoate]
